Results on 26 molecules are retold here after patent US9365540B2, “Benzimidazole derivatives as MCH receptor antagonists” (Takeda Pharmaceutical Company Limited, priority 2012, dated 2016).

The target of test [1] is T1, human MCH receptor 1 (MCHR1) (Homo sapiens, UniProt Q99705).
T1 construct: expressed in transfected cells; host or cells: CHO cell clone 57 (membrane fraction)
Kind of test: human MCH receptor 1 (MCHR1) competitive binding assay with [125I]-MCH(4-19). To be noted: test compound 0.1 μM, human MCHR1-expressing CHO cell membrane fraction, read-out: Binding inhibition rate % (0.1 μM). Summed up: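 Percent binding inhibition by 0.1 μM test compound, corrected for nonspecific binding defined with unlabeled MCH(1-19), is read by scintillation after filtration onto PEI-treated GF/C filters. The reaction runs 1 hr at room temperature with [125I]-MCH(4-19) and human MCHR1-CHO cell membranes in Tris-HCl pH 7.5 buffer containing EDTA and protease inhibitors.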

The next test has as its target T2, human MCHR1 (Homo sapiens, UniProt Q99705).
T2 construct: expressed in transfected cells; host or cells: CHO dhfr- cells, clone #4
The test can be described thus: MCH receptor 1 antagonistic activity, Ca2+ mobilization assay. The test is classed as cell-based. To be noted: CHO, test compound 0.1 μM; human MCHR1-expressing CHO cells (clone #4); ligand MCH(4-19) 2 nM; read-out: Inhibitory rate % (0.1 μM). Here is the method:
Measurement of MCH Receptor 1 Antagonistic Activity of Test Compound Using Ca^2+ Mobilization Assay Using an expression vector plasmid introduced with human MCHR1 gene for expression in animal cells, human MCHR1 gene was introduced into CHO cells (CHO dhfr^−) by Lipofectamine LTX (Invitrogen). The cells were cultured in selection MEMα medium [445 mL of MEMα medium without nucleic acid and added with 5 mL of Penicillin-Streptomycin (Invitrogen) and 50 mL of dialyzed fetal bovine serum]. Colony 24 clones grown in the selection medium, which were human MCHR1 gene-expressing CHO cell candidates, were selected. […] In the following test, this human MCHR1-expressing CHO cell (clone #4) was used. An integrated dispensing function fluorometer (CellLux, PerkinElmer) was used for Ca^2+ mobilization assay. […] The medium was removed, and the cells were washed with phosphate buffered saline (PBS). […] The plate was set on a plate reader. […] The inhibition rates (%) of test compounds (0.1 μM) as antagonist activity measured using human MCHR1-expressing CHO cells (clone #4) are shown in the following Table 3.
Background: Calcium flux is commonly read through the fluorescence of an indicator in the cells.

T2 sequence (Q99705 whole entry): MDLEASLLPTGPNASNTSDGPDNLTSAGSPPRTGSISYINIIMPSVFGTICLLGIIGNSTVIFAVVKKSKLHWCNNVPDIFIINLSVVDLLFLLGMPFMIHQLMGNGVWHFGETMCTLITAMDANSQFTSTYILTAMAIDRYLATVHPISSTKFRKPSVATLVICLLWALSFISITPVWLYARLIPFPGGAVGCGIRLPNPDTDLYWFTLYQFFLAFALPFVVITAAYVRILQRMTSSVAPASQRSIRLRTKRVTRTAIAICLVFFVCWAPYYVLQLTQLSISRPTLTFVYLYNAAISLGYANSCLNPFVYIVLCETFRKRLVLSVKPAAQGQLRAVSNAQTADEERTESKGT
T1 sequence (Q99705 whole entry): as above

Consider `Cn1c(CC2CC2)nc2ccc(-n3ccc(OCc4ccc(Cl)cc4)cc3=O)cc21` [Example 91, 4-((4-Chlorobenzyl)oxy)-1-(2-(cyclopropylmethyl)-1-methyl-1H-benzimidazol-6-yl)pyridin-2(1H)-one], for which the inhibition at 0.1 µM in test [1] was found to be 67%; at human MCHR1, 70%.

`CCc1nc2ccc(-n3ccc(OCc4ccc(Cl)cc4)cc3=O)cc2n1C` [Example 102, 4-((4-Chlorobenzyl)oxy)-1-(2-ethyl-1-methyl-1H-benzimidazol-6-yl)pyridin-2(1H)-one]: the inhibition at 0.1 µM was found to be 75% in test [1] and 97% at human MCHR1.

Take `CCCc1nc2ccc(-n3ccc(OCc4ccc(Cl)cc4)cc3=O)cc2n1C` [Example 103, 4-((4-Chlorobenzyl)oxy)-1-(1-methyl-2-propyl-1H-benzimidazol-6-yl)pyridin-2(1H)-one]: the inhibition at 0.1 µM in test [1] was determined as 78%; on human MCHR1, 63%.

Take `CC(=O)c1nc2ccc(-n3ccc(OCc4ccc(Cl)cc4)cc3=O)cc2n1C` [Example 104, 1-(2-Acetyl-1-methyl-1H-benzimidazol-6-yl)-4-((4-chlorobenzyl)oxy)pyridin-2(1H)-one]: the inhibition at 0.1 µM in test [1] is 60%; on human MCHR1, 61%.

For the molecule `Cc1nc2ccc(-n3ccc(OCc4ccc(Cl)cc4)cc3=O)cc2n1C` [Example 107, 4-((4-Chlorobenzyl)oxy)-1-(1,2-dimethyl-1H-benzimidazol-6-yl)pyridin-2(1H)-one], the figures for the inhibition at 0.1 µM (in test [1]; at human MCHR1) were 60% and 101%, respectively.

On to `Cn1c(C2CC2)nc2ccc(-n3ccc(OCc4cccs4)cc3=O)cc21` [Example 124, 1-(2-Cyclopropyl-1-methyl-1H-benzimidazol-6-yl)-4-(2-thienylmethoxy)pyridin-2(1H)-one], for which the inhibition at 0.1 µM in test [1] turned out to be 58%; on human MCHR1 it was 80%.

Turning to `Cn1c(C2CC2)nc2ccc(-n3ccc(OCc4cccc(Cl)c4)cc3=O)cc21` [Example 127, 4-((3-Chlorobenzyl)oxy)-1-(2-cyclopropyl-1-methyl-1H-benzimidazol-6-yl)pyridin-2(1H)-one], the inhibition at 0.1 µM in test [1] was 80%; on human MCHR1, 77%.

Take `Cc1c(C2CC2)nc2ccc(-n3ccc(OCc4cccc(F)c4)cc3=O)cn12` [Example 130, 1-(2-Cyclopropyl-3-methylimidazo[1,2-a]pyridin-6-yl)-4-((3-fluorobenzyl)oxy)pyridin-2(1H)-one]: the figures for the inhibition at 0.1 µM (in test [1]; at human MCHR1) were 79% and 99%, respectively.

On to `Cc1c(C2CC2)nc2ccc(-n3ccc(OCc4cccs4)cc3=O)cn12` [Example 132, 1-(2-Cyclopropyl-3-methylimidazo[1,2-a]pyridin-6-yl)-4-(2-thienylmethoxy)pyridin-2(1H)-one], for which the inhibition at 0.1 µM in test [1] was found to be 51%; at human MCHR1 it was 96%.

On to `Cc1c(C2CC2)nc2ccc(-n3ccc(OCc4ccsc4)cc3=O)cn12` [Example 133, 1-(2-Cyclopropyl-3-methylimidazo[1,2-a]pyridin-6-yl)-4-(3-thienylmethoxy)pyridin-2(1H)-one], for which the inhibition at 0.1 µM was 79% in test [1] and 98% at human MCHR1.

`Cn1c(C2CC2)nc2ccc(-n3ccc(OCc4ccc(F)s4)cc3=O)cc21` [Example 157, 1-(2-Cyclopropyl-1-methyl-1H-benzimidazol-6-yl)-4-((5-fluorothiophen-2-yl)methoxy)pyridin-2(1H)-one]: the inhibition at 0.1 µM in test [1] is 71%; on human MCHR1, 95%.

Regarding `Cn1c(C2CC2)nc2ccc(-n3ccc(OCc4ccc(C(F)(F)F)s4)cc3=O)cc21` [Example 159, 1-(2-Cyclopropyl-1-methyl-1H-benzimidazol-6-yl)-4-((5-(trifluoromethyl)thiophen-2-yl)methoxy)pyridin-2(1H)-one], the values for the inhibition at 0.1 µM (in test [1]; at human MCHR1) were 87% and 107%, respectively.

Consider `Cc1c(C2CC2)nc2ccc(-n3ccc(OCc4csc(Cl)c4)cc3=O)cn12` [Example 164, 4-((5-Chlorothiophen-3-yl)methoxy)-1-(2-cyclopropyl-3-methylimidazo[1,2-a]pyridin-6-yl)pyridin-2(1H)-one], for which the inhibition at 0.1 µM in test [1] was 92%; at human MCHR1, 102%.

Consider `Cc1c(C2CC2)nc2ccc(-n3ccc(OCc4cc(Cl)cs4)cc3=O)cn12` [Example 168, 4-((4-Chlorothiophen-2-yl)methoxy)-1-(2-cyclopropyl-3-methylimidazo[1,2-a]pyridin-6-yl)pyridin-2(1H)-one], for which the results for the inhibition at 0.1 µM (in test [1]; on human MCHR1) were 84% and 103%, respectively.

On to `Cc1c(C2CC2)nc2ccc(-n3ccc(COc4ccc(F)cc4)cc3=O)cn12` [Example 170, 1-(2-Cyclopropyl-3-methylimidazo[1,2-a]pyridin-6-yl)-4-((4-fluorophenoxy)methyl)pyridin-2(1H)-one], for which the results for the inhibition at 0.1 µM (in test [1]; on human MCHR1) were 23% and 62%, respectively.

Regarding `Cc1c(C2CC2)nc2ccc(-n3ccc(OCc4csc(Br)c4)cc3=O)cn12` [Example 177, 4-((5-Bromo-3-thienyl)methoxy)-1-(2-cyclopropyl-3-methylimidazo[1,2-a]pyridin-6-yl)pyridin-2(1H)-one], the inhibition at 0.1 µM (in test [1]; on human MCHR1) was 97% throughout.

Consider `Cc1c(C2CC2)nc2ccc(-n3ccc(OCc4ccc(C(F)F)s4)cc3=O)cn12` [Example 178, 1-(2-Cyclopropyl-3-methylimidazo[1,2-a]pyridin-6-yl)-4-((5-(difluoromethyl)-2-thienyl)methoxy)pyridin-2(1H)-one], for which the inhibition at 0.1 µM in test [1] turned out to be 74%; on human MCHR1 it was 69%.

For the molecule `Cc1c(C2CC2)nc2ccc(-n3ccc(OCc4csc(C(F)(F)F)n4)cc3=O)cn12` [Example 179, 1-(2-Cyclopropyl-3-methylimidazo[1,2-a]pyridin-6-yl)-4-((2-(trifluoromethyl)-1,3-thiazol-4-yl)methoxy)pyridin-2(1H)-one], the figures for the inhibition at 0.1 µM (in test [1]; on human MCHR1) were 64% and 94%, respectively.

`Cc1c(C2CC2)nc2ccc(-n3ccc(OCc4ccc(C(F)(F)F)o4)cc3=O)cn12` [Example 180, 1-(2-Cyclopropyl-3-methylimidazo[1,2-a]pyridin-6-yl)-4-((5-(trifluoromethyl)-2-furyl)methoxy)pyridin-2(1H)-one]: the inhibition at 0.1 µM in test [1] turned out to be 64%; on human MCHR1, 99%.

Regarding `Cc1c(C2CC2)nc2ccc(-n3ccc(NCc4ccc(Cl)s4)cc3=O)cn12` [Example 181, 4-(((5-Chloro-2-thienyl)methyl)amino)-1-(2-cyclopropyl-3-methylimidazo[1,2-a]pyridin-6-yl)pyridin-2(1H)-one], the values for the inhibition at 0.1 µM (in test [1]; at human MCHR1) were 57% and 21%, respectively.

Take `Cc1c(C2CC2)nc2ccc(-n3ccc(OCc4csc(C(F)(F)F)c4)cc3=O)cn12` [Example 183, 1-(2-Cyclopropyl-3-methylimidazo[1,2-a]pyridin-6-yl)-4-((5-(trifluoromethyl)-3-thienyl)methoxy)pyridin-2(1H)-one]: the inhibition at 0.1 µM in test [1] stood at 91%; at human MCHR1, 75%.

For `Cc1c(C2CC2)nc2ccc(-n3ccc(NCc4ccc(Cl)cc4)cc3=O)cn12` [Example 186, 4-((4-Chlorobenzyl)amino)-1-(2-cyclopropyl-3-methylimidazo[1,2-a]pyridin-6-yl)pyridin-2(1H)-one], the inhibition at 0.1 µM in test [1] turned out to be 25%; on human MCHR1, 74%.

Consider `Cc1c(C2CC2)nc2ccc(-n3ccc(OCc4csc(Br)n4)cc3=O)cn12` [Example 189, 4-((2-Bromo-1,3-thiazol-4-yl)methoxy)-1-(2-cyclopropyl-3-methylimidazo[1,2-a]pyridin-6-yl)pyridin-2(1H)-one], for which the inhibition at 0.1 µM in test [1] is 86%; at human MCHR1, 100%.

On to `Cc1c(C2CC2)nc2ccc(-n3ccc(OCc4ccc(Br)cc4)cc3=O)cn12` [Example 192, 4-((4-Bromobenzyl)oxy)-1-(2-cyclopropyl-3-methylimidazo[1,2-a]pyridin-6-yl)pyridin-2(1H)-one], for which the results for the inhibition at 0.1 µM (in test [1]; on human MCHR1) were 85% and 98%, respectively.

As for `Cc1c(C2CC2)nc2ccc(-n3ccc(OCc4nc(C(F)(F)F)cs4)cc3=O)cn12` [Example 193, 1-(2-Cyclopropyl-3-methylimidazo[1,2-a]pyridin-6-yl)-4-((4-(trifluoromethyl)-1,3-thiazol-2-yl)methoxy)pyridin-2(1H)-one], the inhibition at 0.1 µM worked out at 89% in test [1] and 99% at human MCHR1.

With `Cc1c(C2CC2)nc2ccc(-n3ccc(OCc4nc(Br)cs4)cc3=O)cn12` [Example 194, 4-((4-Bromo-1,3-thiazol-2-yl)methoxy)-1-(2-cyclopropyl-3-methylimidazo[1,2-a]pyridin-6-yl)pyridin-2(1H)-one], the values for the inhibition at 0.1 µM (in test [1]; at human MCHR1) were 82% and 100%, respectively.
